In patent publication US10221163B2 (priority 2015, dated 2019):
Read-outs that look alike come from different tables or passages of the source.

Assays:
[1] = system: Pseudomonas aeruginosa efflux+ (MB9798), IMP-1; format: cell-based; conditions: concentration restoring susceptibility to imipenem at 2 μg/mL in the presence of a class A, C, D serine β-lactamase inhibitor closely related to relebactam
Outline: (§1)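 PAO1 pair, broth microdilution; fixed β-lactam (imipenem/ceftazidime) at ~CLSI breakpoint + fixed class A/C BLI for AmpC; serial MBLi titration; endpoint = MBLi conc. restoring susceptibility; MB9798:MB9799 ratio = efflux liability.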

NDM-1 = NDM-1 (Klebsiella pneumoniae, UniProt C7C422); experiment: biochemical; format: biochemical; conditions: fluorescence assay, CCF2-FA substrate, 1 pM enzyme, 2 hours at 25° C.; read-out: NDM-1 IC50
NDM-1, sequence (C7C422 whole entry, looked up, species assumed): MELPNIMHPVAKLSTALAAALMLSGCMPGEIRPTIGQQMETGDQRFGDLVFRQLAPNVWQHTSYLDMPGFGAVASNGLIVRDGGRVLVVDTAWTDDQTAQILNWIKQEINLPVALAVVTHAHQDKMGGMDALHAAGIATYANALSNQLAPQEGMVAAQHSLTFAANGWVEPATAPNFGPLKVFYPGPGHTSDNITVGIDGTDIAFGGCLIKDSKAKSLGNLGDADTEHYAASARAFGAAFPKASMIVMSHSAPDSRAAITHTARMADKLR
Outline: (§2)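 Class B activity is measured in the presence of compound by fluorescence with CCF2-FA after a 2-hour incubation at 25° C. IC50 is taken from a 4-parameter fit of semi-logarithmic dose-response data.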

IMP-1 = IMP-1 (Serratia marcescens, UniProt P52699); experiment: biochemical; format: biochemical; conditions: fluorescence assay, CCF2-FA substrate, 2 pM enzyme, 2 hours at 25° C.; read-out: IMP-1 IC50
IMP-1, sequence (P52699 whole entry, looked up, species assumed): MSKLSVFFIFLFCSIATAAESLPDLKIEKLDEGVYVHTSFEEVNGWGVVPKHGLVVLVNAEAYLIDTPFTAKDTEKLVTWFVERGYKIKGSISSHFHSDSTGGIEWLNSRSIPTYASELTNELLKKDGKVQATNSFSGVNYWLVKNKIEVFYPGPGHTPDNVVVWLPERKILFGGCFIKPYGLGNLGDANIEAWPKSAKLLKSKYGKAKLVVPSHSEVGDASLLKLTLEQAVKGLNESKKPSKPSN
Outline: as §2

[2] = system: Pseudomonas aeruginosa MB9798 vs MB9799; conditions: ratio MITC95 PA_9798/MITC95 PA_9799
Outline: as §1

[3] = system: Serratia marcescens expressing IMP-1 (CL5741); format: cell-based; conditions: IMP-1 strain CL5741, with imipenem 1 μg/ml, 95% inhibition of growth
Outline: (§3)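 Growth by absorbance after 22–24 h at 35°C defined the read-out, with imipenem fixed at 1 μg/ml alongside compound. Inocula came from overnight blood-agar colonies at 35°C, resuspended in saline and diluted 1:100 in 1.1×CAMHB.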

[4] = system: Escherichia coli expressing NDM-1 (CLB30005, CLB30016); format: cell-based; conditions: NDM-1 strain, with imipenem 1 μg/ml, 95% inhibition of growth
Outline: as §3

[5] = system: Klebsiella pneumoniae expressing VIM-1 (IHMA599644); format: cell-based; conditions: VIM-1 strain IHMA599644, with imipenem 1 μg/ml, 95% inhibition of growth
Outline: as §3

VIM-1 = VIM-1 (Pseudomonas aeruginosa (strain ATCC 15692 / DSM 22644 / CIP 104116 / JCM 14847 / LMG 12228 / 1C / PRS 101 / PAO1), UniProt A0A0F7KYQ8); experiment: biochemical; conditions: CCF2-FA substrate, 30 pM enzyme, 2 hours at 25° C.
Outline: as §2

[6] = system: Pseudomonas aeruginosa efflux− (MB9799), IMP-1; format: cell-based; conditions: concentration restoring susceptibility to imipenem at 2 μg/mL in the presence of a class A, C, D serine β-lactamase inhibitor closely related to relebactam
Outline: as §1

[7] = fluorescence assay, read-out: VIM-1 IC50

Row | Structure (SMILES) | P. aeruginosa expressing IMP-1, efflux + (MB9798) MITC95 [1] | IC50 (NDM-1) | IC50 (IMP-1) | Efflux ratio [2] | Serratia marcescens MITC95 [3] | Escherichia coli MITC95 [4] | Klebsiella pneumoniae MITC95 [5] | IC50 (VIM-1; [7]) | P. aeruginosa expressing IMP-1, efflux − (MB9799) MITC95 [6] | IC50 (VIM-1; VIM-1 IC50, fluorescence assay)
1 | NCCNS(=O)(=O)c1ccc(-c2cccc(-c3c[nH]c(N)n3)c2)c(-c2nn[nH]n2)c1S(N)(=O)=O [Example 353, 3′-(2-amino-1H-imidazol-4-yl)-N4-(2-aminoethyl)-2-(2H-tetrazol-5-yl)-[1,1′-biphenyl]-3,4-disulfonamide] | 1.563 µM | 259 pM | 1150 pM | 2.00 | 0.7813 µM | 0.3906 µM | 1.563 µM | 571 pM | 0.7813 µM | –
2 | NCCNS(=O)(=O)c1ccc(-c2cccc(SCC(N)CO)c2)c(-c2nn[nH]n2)c1S(N)(=O)=O (stereo not drawn) [Example 354, 3′-((2-amino-3-hydroxypropyl)thio)-N4-(2-aminoethyl)-2-(2H-tetrazol-5-yl)-[1,1′-biphenyl]-3,4-disulfonamide] | 1.563 µM | 817 pM | 453 pM | 4.00 | 1.563 µM | 0.3906 µM | 0.7813 µM | 108 pM | 0.3906 µM | –
3 | NCCNS(=O)(=O)c1ccc(-c2cccc3ccc(N)nc23)c(-c2nn[nH]n2)c1S(N)(=O)=O [Example 355, N1-(2-aminoethyl)-4-(2-aminoquinolin-8-yl)-3-(2H-tetrazol-5-yl)benzene-1,2-disulfonamide] | 0.7813 µM | 50.9 pM | 200 pM | 1.00 | 0.7813 µM | 0.1953 µM | 1.563 µM | – | 0.7813 µM | 141 pM
4 | NCCNS(=O)(=O)c1ccc(-c2cccc(SC[C@H](O)CN)c2)c(-c2nn[nH]n2)c1S(N)(=O)=O [Example 356, (R)-3′-((3-amino-2-hydroxypropyl)thio)-N4-(2-aminoethyl)-2-(2H-tetrazol-5-yl)-[1,1′-biphenyl]-3,4-disulfonamide] | 0.7813 µM | 1820 pM | 1410 pM | 2.00 | 0.7813 µM | 0.7813 µM | 0.7813 µM | – | 0.3906 µM | 244 pM
5 | NCCNS(=O)(=O)c1ccc(-c2cccc(SC[C@@H](O)CN)c2)c(-c2nn[nH]n2)c1S(N)(=O)=O [Example 357, (S)-5′-(3-amino-2-hydroxypropylthio)-N4-(2-aminoethyl)-2-(2H-tetrazol-5-yl)biphenyl-3,4-disulfonamide] | 0.7813 µM | 1260 pM | 1210 pM | 2.00 | 0.7813 µM | 0.7813 µM | 0.7813 µM | – | 0.3906 µM | 224 pM
6 | NCCNS(=O)(=O)c1ccc(-c2cccnc2N)c(-c2nn[nH]n2)c1S(N)(=O)=O [Example 358, N1-(2-aminoethyl)-4-(2-aminopyridin-3-yl)-3-(2H-tetrazol-5-yl)benzene-1,2-disulfonamide] | 1.563 µM | 319 pM | 4050 pM | 2.00 | 0.3906 µM | 0.2441 µM | 1.563 µM | 205 pM | 0.7813 µM | –
7 | NCCNS(=O)(=O)c1ccc(-c2cnc3cc[nH]c3c2)c(-c2nn[nH]n2)c1S(N)(=O)=O [Example 359, N1-(2-aminoethyl)-4-(1H-pyrrolo[3,2-b]pyridin-6-yl)-3-(2H-tetrazol-5-yl)benzene-1,2-disulfonamide] | 1.563 µM | 154 pM | 1610 pM | 2.00 | 0.3906 µM | 0.09766 µM | 1.563 µM | 254 pM | 0.7813 µM | –
8 | NCCNS(=O)(=O)c1ccc(-c2cccn3ccnc23)c(-c2nn[nH]n2)c1S(N)(=O)=O [Example 361, N1-(2-aminoethyl)-4-(imidazo[1,2-a]pyridin-8-yl)-3-(2H-tetrazol-5-yl)benzene-1,2-disulfonamide] | 0.7813 µM | 143 pM | 147 pM | 1.00 | 0.7813 µM | 0.3906 µM | 1.563 µM | – | 0.7813 µM | 95.3 pM
9 | NC[C@H](CO)NS(=O)(=O)c1ccc(-c2ccnc(N)c2)c(-c2nn[nH]n2)c1S(N)(=O)=O [Example 362, (R)—N1-(1-amino-3-hydroxypropan-2-yl)-4-(2-aminopyridin-4-yl)-3-(2H-tetrazol-5-yl)benzene-1,2-disulfonamide] | 3.125 µM | 3080 pM | 9510 pM | 2.00 | 1.563 µM | 1.563 µM | 3.125 µM | – | 1.563 µM | 1880 pM
10 | NCc1nc2c(-c3ccc(S(=O)(=O)N[C@H](CN)CO)c(S(N)(=O)=O)c3-c3nn[nH]n3)cccc2s1 [Example 363, (R)—N1-(1-amino-3-hydroxypropan-2-yl)-4-(2-(aminomethyl)benzo[d]thiazol-4-yl)-3-(2H-tetrazol-5-yl)benzene-1,2-disulfonamide] | 3.125 µM | 649 pM | 3670 pM | 4.00 | 1.563 µM | 3.125 µM | 3.125 µM | – | 0.7813 µM | 591 pM
11 | NC[C@H](CO)NS(=O)(=O)c1ccc(-c2cccc(N)n2)c(-c2nn[nH]n2)c1S(N)(=O)=O [Example 364, (R)—N^1-(1-amino-3-hydroxypropan-2-yl)-4-(6-aminopyridin-2-yl)-3-(2H-tetrazol-5-yl)benzene-1,2-disulfonamide] | 3.125 µM | 3250 pM | 14600 pM | 2.00 | 3.125 µM | 3.125 µM | 6.25 µM | 3240 pM | 1.563 µM | –
12 | Nc1ccc(-c2ccc(S(=O)(=O)NC[C@@H](N)CO)c(S(N)(=O)=O)c2-c2nn[nH]n2)cn1 [Example 365, (R)—N1-(2-amino-3-hydroxypropyl)-4-(6-aminopyridin-3-yl)-3-(2H-tetrazol-5-yl) benzene-1,2-disulfonamide] | 1.563 µM | 259 pM | 590 pM | 2.00 | 0.3906 µM | 0.1953 µM | 3.125 µM | 246 pM | 0.7813 µM | –
13 | Nc1nc2c(-c3ccc(S(=O)(=O)NC[C@]4(N)CCNC4)c(S(N)(=O)=O)c3-c3nn[nH]n3)cccc2s1 [Example 366, (S)-4-(2-aminobenzo[d]thiazol-4-yl)-N^1-((3-aminopyrrolidin-3-yl)methyl)-3-(2H-tetrazol-5-yl) benzene-1,2-disulfonamide] | 0.7813 µM | 22.5 pM | 75.3 pM | 1.00 | 1.563 µM | 0.7813 µM | 3.125 µM | – | 0.7813 µM | 105 pM
